Measured values taken from US8410161B2, “Thioxanthone ring system derivatives” (National Defense Medical Center, priority 2010, dated 2013).
Read-outs that look alike come from different tables or passages of the source.

Assays:
Format in all cases: cell-based
[1] = tested on: A control cell lines; assay: MTT assay, A control cell lines (lung cancer cell); conditions: for inhibition effect on A control cell line (in words): summary of MTT cell viabilities
Excerpt: Please refer to Table 1 and FIGS. 4A-4C. According to a MTT assay (Table 1), various cell viabilities of the A control cell lines can be obtained and illustrated in FIG. 4A while the compounds No. 2˜30 are used to treat A control cell lines, wherein A control cell lines are lung cancer cell.

[2] = tested on: A3 cell lines; assay: MTT assay, A3 cell lines (lung cancer stem cell)
Excerpt: Please to FIG. 4B, various cell viabilities of the A3 cell lines can be obtained through the MTT assay and illustrated in FIG. 4B while the compounds No. 1˜30 are used to treat A3 cell lines, wherein A3 cell lines are lung cancer stem cell.

[3] = tested on: CCRF-CEM; assay: NCI in vitro DTP human cell line screen, CCRF-CEM; conditions: Leukemia, 1.00E−5 Molar
Protocol: (§1) Then, a cell toxicity assay of the cancer lines made by National Cancer Institute will be discussed as follows. The cell toxicity assay is performed by choosing ten compounds (existing certification numbers) from the 59 compounds disclosed in the present invention first.

[4] = tested on: HL-60(TB); assay: NCI in vitro DTP human cell line screen, HL-60(TB); conditions: Leukemia, 1.00E−5 Molar
Protocol: as §1

[5] = tested on: K562; assay: NCI in vitro DTP human cell line screen, K562; conditions: Leukemia, 1.00E−5 Molar
Protocol: as §1

[6] = tested on: MOLT-4; assay: NCI in vitro DTP human cell line screen, MOLT-4; conditions: Leukemia, 1.00E−5 Molar
Protocol: as §1

[7] = tested on: RPMI-8226; assay: NCI in vitro DTP human cell line screen, RPMI-8226; conditions: Leukemia, 1.00E−5 Molar
Protocol: as §1

[8] = tested on: SR; assay: NCI in vitro DTP human cell line screen, SR; conditions: Leukemia, 1.00E−5 Molar
Protocol: as §1

[9] = tested on: EKVX; assay: NCI in vitro DTP human cell line screen, EKVX; conditions: Non-Small Cell Lung Cancer, 1.00E−5 Molar
Protocol: as §1

[10] = tested on: HOP-62; assay: NCI in vitro DTP human cell line screen, HOP-62; conditions: Non-Small Cell Lung Cancer, 1.00E−5 Molar
Protocol: as §1

[11] = tested on: HOP-92; assay: NCI in vitro DTP human cell line screen, HOP-92; conditions: Non-Small Cell Lung Cancer, 1.00E−5 Molar
Protocol: as §1

[12] = tested on: NCI-H226; assay: NCI in vitro DTP human cell line screen, NCI-H226; conditions: Non-Small Cell Lung Cancer, 1.00E−5 Molar
Protocol: as §1

[13] = tested on: NCI-H23; assay: NCI in vitro DTP human cell line screen, NCI-H23; conditions: Non-Small Cell Lung Cancer, 1.00E−5 Molar
Protocol: as §1

[14] = tested on: NCI-H322M; assay: NCI in vitro DTP human cell line screen, NCI-H322M; conditions: Non-Small Cell Lung Cancer, 1.00E−5 Molar
Protocol: as §1

[15] = tested on: NCI-H460; assay: NCI in vitro DTP human cell line screen, NCI-H460; conditions: Non-Small Cell Lung Cancer, 1.00E−5 Molar
Protocol: as §1

[16] = tested on: NCI-H522; assay: NCI in vitro DTP human cell line screen, NCI-H522; conditions: Non-Small Cell Lung Cancer, 1.00E−5 Molar
Protocol: as §1

[17] = tested on: COLO 205; assay: NCI in vitro DTP human cell line screen, COLO 205; conditions: Colon Cancer, 1.00E−5 Molar
Protocol: as §1

[18] = tested on: HCC-2998; assay: NCI in vitro DTP human cell line screen, HCC-2998; conditions: Colon Cancer, 1.00E−5 Molar
Protocol: as §1

[19] = tested on: HCT-116; assay: NCI in vitro DTP human cell line screen, HCT-116; conditions: Colon Cancer, 1.00E−5 Molar
Protocol: as §1

[20] = tested on: HCT-15; assay: NCI in vitro DTP human cell line screen, HCT-15; conditions: Colon Cancer, 1.00E−5 Molar
Protocol: as §1

[21] = tested on: HT29; assay: NCI in vitro DTP human cell line screen, HT29; conditions: Colon Cancer, 1.00E−5 Molar
Protocol: as §1

[22] = tested on: SF-268; assay: NCI in vitro DTP human cell line screen, SF-268; conditions: CNS Cancer, 1.00E−5 Molar
Protocol: as §1

[23] = tested on: SF-295; assay: NCI in vitro DTP human cell line screen, SF-295; conditions: CNS Cancer, 1.00E−5 Molar
Protocol: as §1

[24] = tested on: SNB-75; assay: NCI in vitro DTP human cell line screen, SNB-75; conditions: CNS Cancer, 1.00E−5 Molar
Protocol: as §1

[25] = tested on: U251; assay: NCI in vitro DTP human cell line screen, U251; conditions: CNS Cancer, 1.00E−5 Molar
Protocol: as §1

[26] = tested on: LOX IMVI; assay: NCI in vitro DTP human cell line screen, LOX IMVI; conditions: Melanoma, 1.00E−5 Molar
Protocol: as §1

[27] = tested on: MALME-3M; assay: NCI in vitro DTP human cell line screen, MALME-3M; conditions: Melanoma, 1.00E−5 Molar
Protocol: as §1

[28] = tested on: M14; assay: NCI in vitro DTP human cell line screen, M14; conditions: Melanoma, 1.00E−5 Molar
Protocol: as §1

[29] = tested on: MDA-MB-435; assay: NCI in vitro DTP human cell line screen, MDA-MB-435; conditions: Melanoma, 1.00E−5 Molar
Protocol: as §1

[30] = tested on: SK-MEL-28; assay: NCI in vitro DTP human cell line screen, SK-MEL-28; conditions: Melanoma, 1.00E−5 Molar
Protocol: as §1

[31] = tested on: SK-MEL-5; assay: NCI in vitro DTP human cell line screen, SK-MEL-5; conditions: Melanoma, 1.00E−5 Molar
Protocol: as §1

[32] = tested on: UACC-257; assay: NCI in vitro DTP human cell line screen, UACC-257; conditions: Melanoma, 1.00E−5 Molar
Protocol: as §1

[33] = tested on: IGROV1; assay: NCI in vitro DTP human cell line screen, IGROV1; conditions: Ovarian Cancer, 1.00E−5 Molar
Protocol: as §1

[34] = tested on: OVCAR-3; assay: NCI in vitro DTP human cell line screen, OVCAR-3; conditions: Ovarian Cancer, 1.00E−5 Molar
Protocol: as §1

[35] = tested on: OVCAR-5; assay: NCI in vitro DTP human cell line screen, OVCAR-5; conditions: Ovarian Cancer, 1.00E−5 Molar
Protocol: as §1

[36] = tested on: OVCAR-8; assay: NCI in vitro DTP human cell line screen, OVCAR-8; conditions: Ovarian Cancer, 1.00E−5 Molar
Protocol: as §1

[37] = tested on: SK-OV-3; assay: NCI in vitro DTP human cell line screen, SK-OV-3; conditions: Ovarian Cancer, 1.00E−5 Molar
Protocol: as §1

[38] = tested on: 786-0; assay: NCI in vitro DTP human cell line screen, 786-0; conditions: Renal Cancer, 1.00E−5 Molar
Protocol: as §1

[39] = tested on: ACHN; assay: NCI in vitro DTP human cell line screen, ACHN; conditions: Renal Cancer, 1.00E−5 Molar
Protocol: as §1

[40] = tested on: RXF 393; assay: NCI in vitro DTP human cell line screen, RXF 393; conditions: Renal Cancer, 1.00E−5 Molar
Protocol: as §1

[41] = tested on: UO-31; assay: NCI in vitro DTP human cell line screen, UO-31; conditions: Renal Cancer, 1.00E−5 Molar
Protocol: as §1

[42] = tested on: PC-3; assay: NCI in vitro DTP human cell line screen, PC-3; conditions: Prostate Cancer, 1.00E−5 Molar
Protocol: as §1

[43] = tested on: MCF7; assay: NCI in vitro DTP human cell line screen, MCF7; conditions: Breast Cancer, 1.00E−5 Molar
Protocol: as §1

[44] = tested on: MDA-MB-231/ATCC; assay: NCI in vitro DTP human cell line screen, MDA-MB-231/ATCC; conditions: Breast Cancer, 1.00E−5 Molar
Protocol: as §1

[45] = tested on: HS 578-T; assay: NCI in vitro DTP human cell line screen, HS 578-T; conditions: Breast Cancer, 1.00E−5 Molar
Protocol: as §1

[46] = tested on: T-47D; assay: NCI in vitro DTP human cell line screen, T-47D; conditions: Breast Cancer, 1.00E−5 Molar
Protocol: as §1

[47] = tested on: MDA-MB-468; assay: NCI in vitro DTP human cell line screen, MDA-MB-468; conditions: Breast Cancer, 1.00E−5 Molar
Protocol: as §1

In the case of `O=c1c2ccccc2sc2c(Cl)c(SCc3ccccc3)ccc12` [No. 23, 3-(Benzylthio)-4-chloro-9H-thioxanthen-9-one], the “cell viabilities of A control cell lines (MTT assay)” value ([1]; A control, lung cancer cell) is reported as 36.6%, the “inhibition effect on A control cell line (in words)” value [1] is reported as “inhibition effect” and the “cell viabilities of A3 cell lines (MTT assay)” value ([2]; A3, lung cancer stem cell) is reported as 65.9%. For the same compound, the “inhibition effect on A3 cell line (in words)” value ([2]; summary of MTT cell viabilities) was “inhibition effect”, the “Growth Percent” value [3] was 59.07% and the “Growth Percent” value [4] was 115.59%. For the same compound, the “Growth Percent” value [5] was 86.95%, the “Growth Percent” value [6] was 98.34% and the “Growth Percent” value [7] was 89.98%. For the same compound, the “Growth Percent” value [8] was 36.57%, the “Growth Percent” value [9] was 93.46% and the “Growth Percent” value [10] was 94.64%. For the same compound, the “Growth Percent” value [11] was 74.60%, the “Growth Percent” value [12] was 90.97% and the “Growth Percent” value [13] was 97.59%. For the same compound, the “Growth Percent” value [14] was 70.18%, the “Growth Percent” value [15] was 29.14% and the “Growth Percent” value [16] was 95.48%. For the same compound, the “Growth Percent” value [17] was 63.36%, the “Growth Percent” value [18] was 101.78% and the “Growth Percent” value [19] was 41.74%. The “Growth Percent” value [20] was 82.20%, the “Growth Percent” value [21] was 60.70% and the “Growth Percent” value [22] was 100.29%. The “Growth Percent” value [23] was 63.22%, the “Growth Percent” value [24] was 75.12% and the “Growth Percent” value [25] was 38.89%. For the same compound, the “Growth Percent” value [26] was 62.94%, the “Growth Percent” value [27] was 93.38% and the “Growth Percent” value [28] was 102.67%. For the same compound, the “Growth Percent” value [29] was 91.01%, the “Growth Percent” value [30] was 119.10% and the “Growth Percent” value [31] was 99.73%. For the same compound, the “Growth Percent” value [32] was 109.84%, the “Growth Percent” value [33] was 56.63% and the “Growth Percent” value [34] was 76.97%. For the same compound, the “Growth Percent” value [35] was 94.34%, the “Growth Percent” value [36] was 82.11% and the “Growth Percent” value [37] was 94.39%. For the same compound, the “Growth Percent” value [38] was 78.53%, the “Growth Percent” value [39] was 26.15% and the “Growth Percent” value [40] was 106.84%. The “Growth Percent” value [41] was 66.76%, the “Growth Percent” value [42] was 83.92% and the “Growth Percent” value [43] was 89.62%. The “Growth Percent” value [44] was 71.98%, the “Growth Percent” value [45] was 91.28% and the “Growth Percent” value [46] was 82.55%. The “Growth Percent” value [47] was 73.81%.

For `COc1ccc(CSc2ccc3c(=O)c4ccccc4sc3c2Cl)cc1` [No. 27, 4-Chloro-3-(4-methoxybenzylthio)-9H-thioxanthen-9-one], the “cell viabilities of A control cell lines (MTT assay)” value [1] was 50.5%, the “inhibition effect on A control cell line (in words)” value [1] was “inhibition effect” and the “cell viabilities of A3 cell lines (MTT assay)” value [2] was 101 ± 2.95%. The “Growth Percent” value [3] was 89.83%, the “Growth Percent” value [4] was 121.13% and the “Growth Percent” value [5] was 114.13%. For the same compound, the “Growth Percent” value [6] was 102.31%, the “Growth Percent” value [7] was 103.69% and the “Growth Percent” value [8] was 84.48%. For the same compound, the “Growth Percent” value [9] was 114.01%, the “Growth Percent” value [10] was 110.61% and the “Growth Percent” value [11] was 78.71%. The “Growth Percent” value [12] was 100.46%, the “Growth Percent” value [13] was 99.92% and the “Growth Percent” value [14] was 95.82%. For the same compound, the “Growth Percent” value [15] was 107.02%, the “Growth Percent” value [16] was 94.65% and the “Growth Percent” value [17] was 99.12%. The “Growth Percent” value [18] was 105.73%, the “Growth Percent” value [19] was 95.54% and the “Growth Percent” value [20] was 104.37%. For the same compound, the “Growth Percent” value [21] was 108.69%, the “Growth Percent” value [22] was 101.32% and the “Growth Percent” value [23] was 107.03%. The “Growth Percent” value [24] was 97.97%, the “Growth Percent” value [25] was 96.42% and the “Growth Percent” value [26] was 101.59%. The “Growth Percent” value [27] was 107.44%, the “Growth Percent” value [28] was 99.76% and the “Growth Percent” value [29] was 107.44%. For the same compound, the “Growth Percent” value [30] was 118.75%, the “Growth Percent” value [31] was 101.55% and the “Growth Percent” value [32] was 100.47%. The “Growth Percent” value [33] was 108.76%, the “Growth Percent” value [34] was 125.16% and the “Growth Percent” value [35] was 103.70%. The “Growth Percent” value [36] was 95.58%, the “Growth Percent” value [37] was 107.96% and the “Growth Percent” value [38] was 100.89%. For the same compound, the “Growth Percent” value [39] was 104.71%, the “Growth Percent” value [40] was 117.83% and the “Growth Percent” value [41] was 102.53%. For the same compound, the “Growth Percent” value [42] was 93.39%, the “Growth Percent” value [43] was 101.77% and the “Growth Percent” value [44] was 96.93%. The “Growth Percent” value [45] was 124.03%, the “Growth Percent” value [46] was 88.81% and the “Growth Percent” value [47] was 102.80%.
